The subject of one assay is SK-MEL-28-MYC cells. The assay can be described thus: Growth inhibitory action on MYC-induced SK-MEL-28-MYC cells (CellTiter-Glo). The class given is cell-based, human. The settings on record: 125 nM, 3 days. The text has this: Human MYC cDNA was inserted downstream of the TRE of a lentiviral vector (modified pTRIPZ: GE Healthcare) having a tetracycline responsive sequence (TRE) in the promoter region. The produced virus was infected with human malignant melanoma cells SK-MEL-28 (purchased from ATCC) to establish SK-MEL-28 cells (SK-MEL-28-MYC) inducing expression of MYC in the presence of doxycycline (Takara Bio Inc.) which is a tetracycline derivative. SK-MEL-28 cells (SK-MEL-28-Control) having an empty vector with only modified pTRIPZ were also established. 20 μL/well of 2.5 μg/mL doxycycline-containing medium was added to a 96-well plate, and 80 μl/well (1,000 cells/well) of a cell suspension was added, and cultured at 37° C. for 2 days in a 5% CO2 gas incubator. Thereafter, 100 μl of a 250 nM test compound solution was added (final concentration: 125 nM), and the mixture was further cultured for 3 days. 50 µl/well of a CellTiter-Glo™ Luminescent Cell Viability Assay reagent (Promega Corporation) was added to a 96-well plate, the amount of luminescence was measured by a luminometer, and the amount of remaining ATP was determined as a cell amount. The inhibition ratio (%) of cell growth by the test compound was calculated in accordance with the following expression. Inhibition ratio (%)=(1−(amount of luminescence of test compound)÷(amount of luminescence of control group))×100
(In general: In ATP-based viability assays light output follows the ATP content of the culture.)

Assay [1] concerns tumor derived from a myelogenous leukemia patient having a mutation in the SF3B1 gene. The assay is described as follows: Antitumor action on tumor-bearing model derived from patient with acute myeloid leukemia having SF3B1 gene mutation. It is filed as in vivo. The settings on record: 50 mg/kg orally twice a day on 2 days per week for 2 weeks; NOG female mice; tumor volume. The procedure:
A tumor derived from a myelogenous leukemia patient having a mutation in the SF3B1 gene was subcutaneously transplanted into mice to establish a clinical tumor model capable of undergoing in vivo passage. A fragment of the tumor was subcutaneously transplanted into a six-week-old NOG female mice (CLEA Japan, Inc.) with a trocar, the tumor diameter of the developed tumor was measured 52 days after the transplantation, and the tumor volume was calculated in accordance with the following expression. Tumor volume=long diameter×short diameter×short diameter×(½)
Individuals with a tumor developed to a tumor volume of about 200 mm^3 were selected, and six mice per group were used for the experiment. A 0.5% methylcellulose solution (Wako Pure Chemical Industries, Ltd.) suspension of the test compound was orally administered at a dose of 50 mg/kg (10 mL/kg) twice a day on 2 days per week for 2 weeks. The tumor volume was chronologically measured on the day before the start of administration and every 3 to 4 days, the tumor diameter was finally measured on the day after completion of administration for 14 days, and the tumor volume was calculated.
The tumor growth in the test compound administration group with respect to the control administration group was calculated as a T/C value in accordance with the following expression. […]

The target in the next assay is T1, CLK2 enzyme (Homo sapiens, UniProt P49760).
T1 construct: purchased Thermo Fisher Scientific
The assay is described as follows: Measurement of CLK2 inhibitory activity (LANCE time-resolved fluorescence, ULight-labeled MBP peptide). It is filed as biochemical. The settings on record: compound 1 μM; ATP 1 mM; read-out: CLK2 activity inhibition ratio at compound concentration of 1 μM (ATP 1 mM). Here is the method:
A test compound dissolved in DMSO was added to a reaction solution (50 mM HEPES (pH: 7.5), 10 mM MgCl2, 1 mM EGTA, 2 mM DTT, 0.01% Tween 20, 0.01% BSA) containing a CLK2 enzyme (Thermo Fisher Scientific) and an ULight-labeled MBP peptide (PerkinElmer), and the mixture was then reacted at room temperature for 10 minutes. An ATP solution was added to a final concentration of 1 mM to initiate an enzyme reaction, and the reaction was carried out at room temperature for 60 minutes. A europium-labeled anti-phosphorylated MBP antibody (PerkinElmer) and a LANCE Detection buffer (PerkinElmer) containing EDTA with a final concentration of 20 mM were added to stop the reaction, the mixture was left standing for 60 minutes, and the time-resolved fluorescence value (excitation 320 nm, and emission 615 nm and 665 nm) was measured by Envision (PerkinElmer). The inhibition ratio (%) of CLK2 by the test compound was calculated in accordance with the following expression. Inhibition ratio (%)=(1−(count of test compound−blank)÷(control−blank))×100
The count of the CLK2 enzyme reaction solution without addition of the compound was described as a control, and the count without addition of the compound and addition of the CLK2 enzyme was described as a blank. The concentration at which the inhibition ratio was 50% was defined as an IC50 value.
Background: Time-resolved FRET reads energy transfer from a long-lived donor to a nearby acceptor.

Structures are written as SMILES.

T1 sequence (P49760 whole entry): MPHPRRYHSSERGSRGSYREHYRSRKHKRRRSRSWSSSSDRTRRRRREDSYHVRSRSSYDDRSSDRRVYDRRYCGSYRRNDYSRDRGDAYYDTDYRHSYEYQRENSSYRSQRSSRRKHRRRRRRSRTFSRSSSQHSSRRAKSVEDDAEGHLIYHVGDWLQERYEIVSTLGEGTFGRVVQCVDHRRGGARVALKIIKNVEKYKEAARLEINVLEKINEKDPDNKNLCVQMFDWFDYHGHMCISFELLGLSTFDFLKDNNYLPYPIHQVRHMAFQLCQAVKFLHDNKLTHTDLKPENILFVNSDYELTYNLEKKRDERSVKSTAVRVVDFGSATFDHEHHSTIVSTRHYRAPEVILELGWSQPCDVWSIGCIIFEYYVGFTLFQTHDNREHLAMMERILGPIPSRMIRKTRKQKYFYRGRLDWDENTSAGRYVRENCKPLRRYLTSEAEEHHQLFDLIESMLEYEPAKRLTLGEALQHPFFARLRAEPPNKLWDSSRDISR

Take `COc1ncnn2ccc(-c3cnc4nc(C)n(Cc5nnc([C@@H](C)F)o5)c4c3)c12` [Example 286, 1-((5-((1R)-1-fluoroethyl)-1,3,4-oxadiazol-2-yl)methyl)-6-(4-methoxypyrrolo[2,1-f][1,2,4]triazin-5-yl)-2-methyl-1H-imidazo[4,5-b]pyridine]: the “Inhibition ratio (%) of cell growth, Doxycycline (+)” value in the assay on SK-MEL-28-MYC cells (Doxycycline (+), MYC induced) worked out at 69.3%. Besides, the “Inhibition ratio (%) of cell growth, Doxycycline (−)” value in the assay on SK-MEL-28-MYC cells (Doxycycline (−)) turned out to be 24.7%. The “T/C (%)” value in assay [1] is given as −30.4%. On CLK2 enzyme, the inhibition at 1 µM stood at 100%.

Source of the values: patent US10577382B2, “Fused heterocyclic compound” (TAKEDA PHARMACEUTICAL COMPANY LIMITED, priority 2016, dated 2020).
